Experimental findings from ChEMBL document CHEMBL3046372, “Design, Synthesis and Growth Inhibition Activity of Bis-Epoxyethyl Derivatives of Stallimycin Modified on the Amidino Moiety” (Med Chem Res, 2004) are described below.

Assay [1] relates to K562. The assay can be described thus: Cytotoxicity against Homo sapiens (human) K562 cells after 72 hr. The class given is functional, cell-based. The settings on record: K562, 72 h.
Assay [2] deals with L1210. The assay can be described thus: Cytotoxicity against Mus musculus (mouse) L1210 cells after 72 hr. The class given is functional, cell-based. The note with it: L1210, 72 h.
The test system of assay [3] is L1210. The assay can be described thus: Ratio of distamycin-A IC50 to compound IC50 for Mus musculus (mouse) L1210 cells. The class given is functional.
Assay [4] concerns K562. As to the kind of experiment: Induction of erythroid differentiation in Homo sapiens (human) K562 cells assessed as benzidine-positive cells at IC50 after 6 days. The class given is functional.
For assay [5], the system named is K562. As to the kind of experiment: Induction of erythroid differentiation in Homo sapiens (human) K562 cells assessed as benzidine-positive cells at IC50 after 4 days. The class given is functional.

A word on the IC50: it is the concentration at which inhibition is half-maximal. Higher therefore signals weaker potency. As for `Cn1cc(NC(=O)c2cc(NC(=O)c3cc(N)cn3C)cn2C)cc1C(=O)NCCC(N)=O`, the IC50 with K562 [1] is 45 µM; in the assay on L1210 [2], greater than 50 µM.
For the molecule `Cn1cc(NC(=O)c2cc(NC(=O)c3cc(N(CC4CO4)CC4CO4)cn3C)cn2C)cc1C(=O)NCCC(N)=O` (stereo not given), the IC50 in the assay on K562 [1] worked out at 25 µM; with L1210 [2], 35 µM. In the assay on L1210 [3], the “Ratio IC50” value is given as 4. For the same molecule, the values for the Activity with K562 [4] and with K562 [5] were 16% and 15%, respectively.
In the case of `Cn1cc(NC(=O)c2cc(NC(=O)c3cc(N)cn3C)cn2C)cc1C(=O)NCC/C(N)=N/O`, the IC50 in the assay on K562 [1] and with L1210 [2] was greater than 50 µM throughout.
Turning to `Cn1cc(NC(=O)c2cc(NC(=O)c3cc(N(CC4CO4)CC4CO4)cn3C)cn2C)cc1C(=O)NCC/C(N)=N/C#N` (stereo not given), the IC50 with K562 [1] stood at 1 µM; in the assay with L1210 [2], 6.3 µM. In addition, the Activity in the assay on K562 [4] worked out at 65.3%; in the assay with K562 [5], 46.3%.
For the molecule `CNC(=O)CCNC(=O)c1cc(NC(=O)c2cc(NC(=O)c3cc(N)cn3C)cn2C)cn1C`, the IC50 with K562 [1] and in the assay with L1210 [2] was greater than 50 µM each time.
`Cn1cc(NC(=O)c2cc(NC(=O)c3cc(N)cn3C)cn2C)cc1C(=O)NCC/C(N)=N/C#N`: the IC50 in the assay on K562 [1] and in the assay on L1210 [2] was greater than 50 µM each time.
For the molecule `Cl.Cl.Cn1cc(NC(=O)c2cc(NC(=O)c3cc(NC=O)cn3C)cn2C)cc1C(=O)NCCC(=N)N`, the IC50 in the assay with K562 [1] is 10 µM; with L1210 [2], 50 µM. The Activity with K562 [4] was found to be 10%; in the assay with K562 [5], 8%.
Consider `Cn1cc(NC(=O)c2cc(NC(=O)c3cc(N(CC4CO4)CC4CO4)cn3C)cn2C)cc1C(=O)NCC/C(N)=N/O` (stereo not given), for which the IC50 in the assay with K562 [1] turned out to be 12 µM; with L1210 [2] it was 18 µM. For the same molecule, the Activity is given as 13% with K562 [4] and 11% in the assay on K562 [5].
Regarding `CNC(=O)CCNC(=O)c1cc(NC(=O)c2cc(NC(=O)c3cc(N(CC4CO4)CC4CO4)cn3C)cn2C)cn1C` (stereo not given), the results for the IC50 with K562 [1] and in the assay with L1210 [2] were 25 µM and 38 µM, respectively. For the same molecule, the “Ratio IC50” value in the assay on L1210 [3] is listed as 4. For the same molecule, the figures for the Activity in the assay on K562 [4] and in the assay with K562 [5] were 15% and 12%, respectively.
